ChEMBL document CHEMBL1137324, “Novel selective orally active CRTH2 antagonists for allergic inflammation developed from in silico derived hits” (J Med Chem, 2006)

How the values were obtained:
Rattus norvegicus = species: Rattus norvegicus; assay: Stability in rat liver S9 fraction; type: ADME
[1] = biological target: Cysteinyl leukotriene receptor 1 (Homo sapiens) (UniProt Q9Y271); assay: Inhibition of human LTD4 receptor at 10 uM
[2] = biological target: Beta-1 adrenergic receptor (Homo sapiens) (UniProt P08588); assay: Inhibition of human beta-1 receptor at 10 uM
[3] = biological target: D(2) dopamine receptor (Homo sapiens) (UniProt P14416); assay: Inhibition of human D2S receptor at 10 uM
[4] = biological target: Prostaglandin D2 receptor (Homo sapiens, UniProt Q13258); assay: Inhibition of DP1
[5] = biological target: Glutamate [NMDA] receptor (Homo sapiens) (UniProt Q05586+Q12879+Q13224+O15399+O60391+Q14957+Q8TCU5); assay: Inhibition of human PCP receptor at 10 uM; type: protein-complex assay
[6] = biological target: Glucocorticoid receptor (Homo sapiens) (UniProt P04150); assay: Inhibition of human glucocorticoid receptor at 10 uM
[7] = biological target: Opioid receptors; mu/kappa/delta (Homo sapiens) (UniProt P41145+P41143+P35372); assay: Inhibition of opiate receptor at 10 uM; type: protein assay
[8] = biological target: Chemerin-like receptor 1 (Homo sapiens) (UniProt Q99788); assay: Inhibition of ChemR23 receptor at 10 uM
[9] = biological target: Prostaglandin G/H synthase 2 (Homo sapiens) (UniProt P35354); assay: Inhibition of COX2 at 10 uM
[10] = biological target: Histamine H1 receptor (Homo sapiens) (UniProt P35367); assay: Inhibition of human H1 receptor at 10 uM
[11] = biological target: fMet-Leu-Phe receptor (Homo sapiens) (UniProt P21462); assay: Inhibition of human fMLP receptor at 10 uM
[12] = biological target: Platelet-activating factor receptor (Homo sapiens) (UniProt P25105); assay: Inhibition of human PAF receptor at 10 uM
[13] = biological target: Adenosine receptor A2a (Homo sapiens) (UniProt P29274); assay: Inhibition of human A2A receptor at 10 uM
[14] = Bioavailability in rat; type: ADME, organism-based; conditions: in vivo
[15] = biological target: Somatostatin receptor (Homo sapiens) (UniProt P35346+P30874+P31391+P30872+P32745); assay: Inhibition of sst receptor at 10 uM; type: protein assay
Homo sapiens = species: Homo sapiens; assay: Inhibition of human Y receptor at 10 uM
[16] = biological target: T1, Prostaglandin D2 receptor 2 (Homo sapiens, UniProt Q9Y5Y4); assay: Antagonist activity against CRTH2 receptor measured as inhibition of PGD2-induced beta-arrestin translocation in HEK293 cells by BRET assay; type: functional, cell-based
T1 sequence (Q9Y5Y4 whole entry): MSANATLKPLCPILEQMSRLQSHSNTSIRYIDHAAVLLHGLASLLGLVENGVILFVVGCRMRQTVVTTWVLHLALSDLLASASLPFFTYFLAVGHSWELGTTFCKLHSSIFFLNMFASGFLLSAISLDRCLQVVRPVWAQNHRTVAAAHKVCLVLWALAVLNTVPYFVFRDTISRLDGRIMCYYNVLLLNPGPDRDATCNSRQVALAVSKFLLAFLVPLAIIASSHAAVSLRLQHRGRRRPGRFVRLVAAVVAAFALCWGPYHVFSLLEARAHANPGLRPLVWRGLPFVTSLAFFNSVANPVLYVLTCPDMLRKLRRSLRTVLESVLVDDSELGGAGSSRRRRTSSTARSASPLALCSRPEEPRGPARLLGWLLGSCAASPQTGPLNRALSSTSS

[17] = biological target: Prostaglandin D2 receptor (Homo sapiens) (UniProt Q13258); assay: Inhibition of human DP receptor at 10 uM
[18] = biological target: Polyunsaturated fatty acid lipoxygenase ALOX12 (Homo sapiens) (UniProt P18054); assay: Inhibition of 12-LO at 10 uM
[19] = biological target: Serotonin (5-HT) receptor (Homo sapiens) (UniProt P30939+P41595+Q13639+P28222+P46098+P08908+P28221+P28223+P28335+P28566+P34969+P50406+P47898+A5X5Y0+O95264+Q70Z44+Q8WXA8); assay: Inhibition of 5-HT receptor at 10 uM; type: protein assay

Sequence of Adenosine receptor A2a (Homo sapiens) (P29274 whole entry): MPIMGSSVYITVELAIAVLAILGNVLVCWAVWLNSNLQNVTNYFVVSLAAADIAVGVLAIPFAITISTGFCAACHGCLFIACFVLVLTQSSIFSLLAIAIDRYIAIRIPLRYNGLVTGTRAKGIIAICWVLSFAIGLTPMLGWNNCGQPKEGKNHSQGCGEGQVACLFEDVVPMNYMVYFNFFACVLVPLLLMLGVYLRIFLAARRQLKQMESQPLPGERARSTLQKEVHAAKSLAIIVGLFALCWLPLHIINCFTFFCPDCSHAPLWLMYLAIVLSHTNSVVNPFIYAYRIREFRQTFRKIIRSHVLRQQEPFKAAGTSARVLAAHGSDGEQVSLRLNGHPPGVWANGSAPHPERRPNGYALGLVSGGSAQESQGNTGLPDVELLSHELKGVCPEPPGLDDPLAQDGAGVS
Sequence of Prostaglandin D2 receptor (Q13258 whole entry): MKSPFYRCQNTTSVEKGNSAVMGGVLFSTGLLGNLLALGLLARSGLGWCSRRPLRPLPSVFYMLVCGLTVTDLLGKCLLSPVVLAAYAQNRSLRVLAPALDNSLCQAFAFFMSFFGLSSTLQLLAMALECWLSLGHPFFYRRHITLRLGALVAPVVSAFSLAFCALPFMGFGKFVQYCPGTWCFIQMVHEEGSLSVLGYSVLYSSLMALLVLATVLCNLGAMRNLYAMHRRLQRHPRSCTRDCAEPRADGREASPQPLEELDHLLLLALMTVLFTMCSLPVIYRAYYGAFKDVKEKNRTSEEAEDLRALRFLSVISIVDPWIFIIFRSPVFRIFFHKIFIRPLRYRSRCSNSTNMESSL
Sequence of Prostaglandin D2 receptor (Homo sapiens) (Q13258 whole entry): as above
Sequence of Prostaglandin G/H synthase 2 (Homo sapiens) (P35354 whole entry): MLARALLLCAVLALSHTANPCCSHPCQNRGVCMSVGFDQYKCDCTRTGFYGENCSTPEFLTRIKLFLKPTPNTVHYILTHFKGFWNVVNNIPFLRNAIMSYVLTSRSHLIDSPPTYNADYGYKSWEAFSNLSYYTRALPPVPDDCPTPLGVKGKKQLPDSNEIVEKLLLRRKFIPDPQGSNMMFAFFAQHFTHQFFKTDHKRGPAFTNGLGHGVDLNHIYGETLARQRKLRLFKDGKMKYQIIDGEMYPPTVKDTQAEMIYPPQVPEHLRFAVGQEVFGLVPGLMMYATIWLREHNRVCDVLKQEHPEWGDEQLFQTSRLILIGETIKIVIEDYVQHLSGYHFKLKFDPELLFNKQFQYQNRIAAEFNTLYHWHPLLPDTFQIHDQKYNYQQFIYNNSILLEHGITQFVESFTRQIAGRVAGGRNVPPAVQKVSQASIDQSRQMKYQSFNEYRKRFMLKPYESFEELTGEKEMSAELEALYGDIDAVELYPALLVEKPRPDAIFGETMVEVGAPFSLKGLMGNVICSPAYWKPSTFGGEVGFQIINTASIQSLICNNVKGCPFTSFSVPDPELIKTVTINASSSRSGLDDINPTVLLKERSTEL
Sequence of Histamine H1 receptor (Homo sapiens) (P35367 whole entry): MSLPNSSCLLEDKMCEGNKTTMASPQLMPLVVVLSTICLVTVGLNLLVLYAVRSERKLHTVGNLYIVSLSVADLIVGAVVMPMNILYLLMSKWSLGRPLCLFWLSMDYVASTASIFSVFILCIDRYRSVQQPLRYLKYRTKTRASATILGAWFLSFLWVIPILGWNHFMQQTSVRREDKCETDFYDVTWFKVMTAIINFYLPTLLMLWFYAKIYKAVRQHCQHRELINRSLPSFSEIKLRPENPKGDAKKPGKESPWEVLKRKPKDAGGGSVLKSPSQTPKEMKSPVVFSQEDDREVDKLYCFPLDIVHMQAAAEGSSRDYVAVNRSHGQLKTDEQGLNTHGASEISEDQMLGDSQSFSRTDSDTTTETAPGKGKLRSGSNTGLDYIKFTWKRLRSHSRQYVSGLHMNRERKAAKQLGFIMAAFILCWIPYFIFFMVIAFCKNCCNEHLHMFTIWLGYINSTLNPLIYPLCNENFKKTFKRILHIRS
Sequence of Cysteinyl leukotriene receptor 1 (Homo sapiens) (Q9Y271 whole entry): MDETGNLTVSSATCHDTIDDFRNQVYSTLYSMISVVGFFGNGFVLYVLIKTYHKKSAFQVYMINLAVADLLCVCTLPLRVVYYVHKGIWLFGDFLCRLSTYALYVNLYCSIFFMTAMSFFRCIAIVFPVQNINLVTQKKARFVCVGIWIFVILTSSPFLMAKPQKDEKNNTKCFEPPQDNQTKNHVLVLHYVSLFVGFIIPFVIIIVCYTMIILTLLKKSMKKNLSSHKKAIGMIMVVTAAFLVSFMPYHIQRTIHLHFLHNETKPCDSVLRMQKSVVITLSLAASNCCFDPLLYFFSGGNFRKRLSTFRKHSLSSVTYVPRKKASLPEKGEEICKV
Sequence of Platelet-activating factor receptor (Homo sapiens) (P25105 whole entry): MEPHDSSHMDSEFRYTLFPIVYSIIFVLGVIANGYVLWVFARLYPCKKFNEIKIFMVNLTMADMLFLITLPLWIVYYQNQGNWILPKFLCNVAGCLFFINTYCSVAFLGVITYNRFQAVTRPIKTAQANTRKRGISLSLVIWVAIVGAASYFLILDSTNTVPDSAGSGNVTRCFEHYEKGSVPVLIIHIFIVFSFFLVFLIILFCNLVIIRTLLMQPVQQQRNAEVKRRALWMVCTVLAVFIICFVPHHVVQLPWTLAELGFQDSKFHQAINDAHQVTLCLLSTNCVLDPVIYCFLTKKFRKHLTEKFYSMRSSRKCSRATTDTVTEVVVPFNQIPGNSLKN
Sequence of Beta-1 adrenergic receptor (Homo sapiens) (P08588 whole entry, looked up): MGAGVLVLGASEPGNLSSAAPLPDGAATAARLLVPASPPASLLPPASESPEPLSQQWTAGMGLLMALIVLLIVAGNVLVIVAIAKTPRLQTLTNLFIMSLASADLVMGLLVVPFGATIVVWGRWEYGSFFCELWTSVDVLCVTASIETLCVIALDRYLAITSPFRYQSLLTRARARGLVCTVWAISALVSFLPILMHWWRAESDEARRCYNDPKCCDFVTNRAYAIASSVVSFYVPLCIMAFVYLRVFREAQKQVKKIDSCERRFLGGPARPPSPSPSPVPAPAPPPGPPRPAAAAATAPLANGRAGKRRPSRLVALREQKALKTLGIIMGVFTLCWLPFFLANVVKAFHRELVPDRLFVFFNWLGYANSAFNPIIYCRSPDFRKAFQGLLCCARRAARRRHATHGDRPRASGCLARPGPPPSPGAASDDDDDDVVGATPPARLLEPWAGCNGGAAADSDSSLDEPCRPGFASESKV
Sequence of Polyunsaturated fatty acid lipoxygenase ALOX12 (Homo sapiens) (P18054 whole entry): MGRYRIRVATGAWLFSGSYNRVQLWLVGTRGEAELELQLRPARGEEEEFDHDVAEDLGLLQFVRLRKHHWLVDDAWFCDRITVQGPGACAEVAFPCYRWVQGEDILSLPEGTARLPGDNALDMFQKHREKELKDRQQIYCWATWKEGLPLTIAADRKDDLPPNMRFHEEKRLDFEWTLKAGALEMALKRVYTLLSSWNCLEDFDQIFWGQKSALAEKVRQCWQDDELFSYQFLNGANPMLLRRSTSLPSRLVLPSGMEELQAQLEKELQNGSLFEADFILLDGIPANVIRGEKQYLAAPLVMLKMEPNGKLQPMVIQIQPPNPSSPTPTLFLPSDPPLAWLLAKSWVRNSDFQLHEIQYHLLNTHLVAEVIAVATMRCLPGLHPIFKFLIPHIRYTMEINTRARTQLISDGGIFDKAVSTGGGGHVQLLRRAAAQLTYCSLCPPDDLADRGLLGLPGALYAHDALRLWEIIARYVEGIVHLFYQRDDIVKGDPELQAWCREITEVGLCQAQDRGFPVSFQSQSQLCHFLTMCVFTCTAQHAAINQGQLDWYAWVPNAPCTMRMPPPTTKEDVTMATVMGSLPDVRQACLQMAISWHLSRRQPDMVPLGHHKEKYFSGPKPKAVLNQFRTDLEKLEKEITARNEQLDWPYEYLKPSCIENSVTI
Sequence of fMet-Leu-Phe receptor (Homo sapiens) (P21462 whole entry): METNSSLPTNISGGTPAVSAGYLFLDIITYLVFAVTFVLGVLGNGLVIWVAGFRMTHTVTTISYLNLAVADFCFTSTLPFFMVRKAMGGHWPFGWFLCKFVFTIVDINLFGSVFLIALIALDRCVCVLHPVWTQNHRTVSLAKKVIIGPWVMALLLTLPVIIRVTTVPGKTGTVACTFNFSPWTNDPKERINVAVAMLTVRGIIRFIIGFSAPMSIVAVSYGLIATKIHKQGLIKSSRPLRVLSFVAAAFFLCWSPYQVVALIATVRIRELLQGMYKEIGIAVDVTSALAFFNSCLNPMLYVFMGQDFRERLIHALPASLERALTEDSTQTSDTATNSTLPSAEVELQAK
Sequence of D(2) dopamine receptor (Homo sapiens) (P14416 whole entry): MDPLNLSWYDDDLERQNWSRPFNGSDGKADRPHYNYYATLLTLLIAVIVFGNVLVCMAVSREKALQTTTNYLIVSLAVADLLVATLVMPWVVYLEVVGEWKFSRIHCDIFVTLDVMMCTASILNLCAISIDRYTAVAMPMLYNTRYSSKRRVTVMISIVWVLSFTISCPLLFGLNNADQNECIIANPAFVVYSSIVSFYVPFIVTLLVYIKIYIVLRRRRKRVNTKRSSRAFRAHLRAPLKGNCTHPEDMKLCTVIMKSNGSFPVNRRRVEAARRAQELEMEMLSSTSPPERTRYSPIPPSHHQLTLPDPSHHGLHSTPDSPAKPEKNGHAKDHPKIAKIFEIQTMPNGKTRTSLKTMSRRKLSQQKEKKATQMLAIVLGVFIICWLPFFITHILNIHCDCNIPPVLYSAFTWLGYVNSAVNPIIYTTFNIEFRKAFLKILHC
Sequence of Chemerin-like receptor 1 (Homo sapiens) (Q99788 whole entry): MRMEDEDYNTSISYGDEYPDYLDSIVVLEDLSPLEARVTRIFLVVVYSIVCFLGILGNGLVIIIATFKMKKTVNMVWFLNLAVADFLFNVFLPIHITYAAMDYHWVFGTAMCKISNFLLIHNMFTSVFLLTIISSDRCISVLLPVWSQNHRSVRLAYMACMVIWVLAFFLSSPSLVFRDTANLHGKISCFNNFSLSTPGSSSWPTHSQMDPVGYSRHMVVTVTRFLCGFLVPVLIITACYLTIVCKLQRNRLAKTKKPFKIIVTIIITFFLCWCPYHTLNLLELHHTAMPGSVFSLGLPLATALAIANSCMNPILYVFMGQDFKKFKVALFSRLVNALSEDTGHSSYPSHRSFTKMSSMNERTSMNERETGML

O=C(O)COc1ccc(Br)cc1C(=O)c1cnn(-c2ccccc2)c1
84%: bioavailability [14]
< 20%: inhibition [9] | inhibition [18]
> 100000 nM: IC50 [4]
< 30%: inhibition [1] | inhibition [2] | inhibition [3] | inhibition [5] | inhibition [6] | inhibition [7] | inhibition [8] | inhibition [10] | inhibition [11] | inhibition [12] | inhibition [13] | inhibition [15] | inhibition (Homo sapiens) | inhibition [17] | inhibition [19]
92%: Stability (Rattus norvegicus)
24 nM: IC50 [16]
